Results published in patent publication US20090298938A1, “USE OF SEMI SYNTHETIC ANALOGUES OF BOSWELLIC ACIDS FOR ANTICANCER ACTIVITY” (COUNCIL OF SCIENTIFIC & INDUSTRIAL RESEARCH, priority 2008, published 2009).

How the values were obtained:
Assay type in all cases: cell-based, human
[1] = tested on: PC-3 cells; assay: In vitro cytotoxicity, SRB assay, PC-3
Method: (§1) The semi-synthetic analogues of formula 1 have been subjected to in vitro cytotoxicity screening in a panel of human cancer cell lines using following methodology. The human cancer cell lines were obtained either from National Center for Cell Science, Pune or National Cancer Institute, Fredrick, Md., USA. Cells were grown in tissue culture flasks in complete growth medium (RPMI-1640 medium with 2 mM glutamine, 100 µg/ml streptomycin, pH 7.4, sterilized by filtration and supplemented with 10% sterilized fetal calf serum and 100 units/ml penicillin before use) at 37° C. in an atmosphere of 5% CO2 and 90% relative humidity in a carbon dioxide incubator. The cells at sub-confluent stage were harvested from flask by treatment with trypsin (0.05% trypsin in PBS containing 0.02% EDTA) and suspended in complete growth medium. Cells with cell viability of more than 97% by trypan blue exclusion technique were used for determination of cytotoxicity.
(§2) Test material were dissolved in DMSO (dimethyl sulphoxide) to obtain a stock solution of 2×10^−2M. The stock solution was serially diluted with complete growth medium containing 50 μg/ml of gentamycin to obtain working test solutions of required concentrations.
(§3) The suspension of human cancer cell lines of required cell density in complete growth medium was prepared and cell suspension (100 μl/well) of each cell line was added to wells of 96-well tissue culture plate. Suitable blanks and controls were also included. The plates were incubated for 24 hrs in a carbon dioxide incubator.
(§4) The working test solutions of different concentrations (100 μl/well) were added after 24 hr incubation. The plates were further incubated for 48-hrs after addition of the test materials. After incubation, the cell growth was stopped by gently layering of 50 μl of TCA (50% trichloroacetic acid) on top of the medium in all the wells. The plates were incubated at 4° C. for one hour to fix the cells attached to bottom of the wells. Liquids of all the wells were gently pipetted out and discarded. The plates were washed five times with distilled water to remove TCA, growth medium, low molecular weight metabolites, serum proteins etc. The plates were air dried.
(§5) Cell growth was measured by staining with sulforhodamine B dye (SRB). The SRB solution (100 μl, 0.4% in 1% acetic acid) was added to each well and the plates were incubated at room temperature for 30 minutes. The unbound SRB was quickly removed by washing the wells five times with 1% acetic acid solution and plates were air dried. Tris buffer (100 μl, 0.01 M, pH 10.4) was added to all the wells and plates were gently stirred for 5 minutes on a mechanical stirrer. The optical density was recorded on ELISA reader at 540 nm.
(§6) Cell growth in the presence of test material was calculated in terms of the percentage of growth inhibition. The in vitro cytotoxicity of four natural boswellic acid i.e. boswellic acid, acetyl boswellic acid, 11-keto-boswellic acids, acetyl-11-ketio-boswellic acid on various cancer cell lines has been examined and typical results are given in the succeeding table. Based on their cytotoxicity profile the analogues of formula 1 were studied for inhibition of cell proliferation by using MTT assay method. […] The induction of apoptosis in HL-60 cells was also validated by generation of DNA fragmentation.
(§7) Assay of cytotoxicity potential of test materials is a primary standard procedure for seeking lead molecules for development of anti-cancer leads. Human cancer cells after trypsinization into single cell suspension were grown in 96-well culture plate for 24 hr. Cells were treated with indicated doses of test analogues and incubated in CO2 incubator for 48 hr. Thereafter, cells were stained with sulforhodamine B dye, and the bound dye was eluted to measure the optical density indicating cell growth in Elisa Reader at 540 nm [Monks et al., 1991]. […]

[2] = tested on: Colo-205 colon cancer cells; assay: In vitro cytotoxicity, SRB assay, Colo-205
Method: as §1, §2, §3, §4, §5, §6, §7

[3] = tested on: SW-620 colon cancer cells; assay: In vitro cytotoxicity, SRB assay, SW-620
Method: as §1, §2, §3, §4, §5, §6, §7

[4] = tested on: Hep-2 cells; assay: In vitro cytotoxicity, SRB assay, Hep-2
Method: as §1, §2, §3, §4, §5, §6, §7

[5] = tested on: HT-29 colon cancer cells; assay: In vitro cytotoxicity, SRB assay, HT-29
Method: as §1, §2, §3, §4, §5, §6, §7

[6] = Conc. 5 × 10^5 (r27-r29: 5 × 10^−5), 48 hr, Table 1
[7] = Conc. 5 × 10^−5, 48 hr, natural boswellic acids

Compound | Growth inhibition % PC-3 [1, 6] | Growth inhibition % Colo-205 Colon [2, 6] | Growth inhibition % SW-620 Colon [3, 6] | Growth inhibition % Hep-2 [4, 6] | Growth inhibition % HT-29 Colon [5, 6] | other results
CCCCCC(=O)OC1CCC2(C)C(CCC3(C)C2C(=O)C=C2C4C(C)C(C)CCC4(C)CCC23C)C1(C)C(=O)O (stereo not shown) | 73% | 95% | 100% | 100% | 96% | 
CC(=O)OC1CCC2(C)C(CCC3(C)C2CC=C2C4C(C)C(C)CCC4(C)CCC23C)C1(C)C(=O)O (stereo not shown) [1, R3O = —COCH3, R1 = H, R4 = R5 = H] | 54% | 34% | 38% | 41% | 34% | 
CCC(=O)OC1CCC2(C)C(CCC3(C)C2C(=O)C=C2C4C(C)C(C)CCC4(C)CCC23C)C1(C)C(=O)O (stereo not shown) [1, R3O = COCH2CH3, R1 = H, R4 + R5 = O] | 61% | 92% | 90% | 72% | 92% | 
CC1CCC2(C)CCC3(C)C(=CC(=O)C4C5(C)CCC(OC(=O)CCC(=O)O)C(C)(C(=O)O)C5CCC43C)C2C1C (stereo not shown) [1,R3O = —COCH2CH2COOH R1 = H, R4 + R5 = O] | 60% | 29% | 2% | 17% | 16% | 
CC1CCC2(C)CCC3(C)C(=CCC4C5(C)CCC(OC=O)C(C)(C(=O)O)C5CCC43C)C2C1C (stereo not shown) [1, R3O = COH, R1 = H, R4 = R5 = H] | 99% | 93% | 92% | 75% | 79% | 
CCCC(=O)OC1CCC2(C)C(CCC3(C)C2CC=C2C4C(C)C(C)CCC4(C)CCC23C)C1(C)C(=O)O (stereo not shown) [1,R3O = COCH2CH2CH3, R1 = H, R4 = R5 = H] | 80% | 71% | 83% | 65% | 54% | 
CC(=O)OC1CCC2(C)C(CCC3(C)C2C(=O)C=C2C4C(C)C(C)CCC4(C)CCC23C)C1(C)C(=O)O (stereo not shown) [1, R3O = COCH3, R1 = H, R4 + R5 = O] | 60% | 56% | 48% | 50% | 45% | 
CO[C@@]12[C@H](COC(N)=O)C3=C(C(=O)C(C)=C(N)C3=O)N1C[C@@H]1N[C@@H]12 [Mitomycin C, reference compound] |  |  |  |  |  | Growth inhibition % PC-3 ([1]; Conc. 1 × 10^6, Table 2): 24%; Growth inhibition % PC-3 ([1]; Conc. 1 × 10^7, Table 2): 18%; Growth inhibition % Colo-205 Colon ([2]; Conc. 1 × 10^6, Table 2): 28%; Growth inhibition % Colo-205 Colon ([2]; Conc. 1 × 10^7, Table 2): 41%; Growth inhibition % SW-620 Colon ([3]; Conc. 1 × 10^6, Table 2): 57%; Growth inhibition % SW-620 Colon ([3]; Conc. 1 × 10^7, Table 2): 27%; Growth inhibition % Hep-2 ([4]; Conc. 1 × 10^6, Table 2): 46%; Growth inhibition % Hep-2 ([4]; Conc. 1 × 10^7, Table 2): 12%; Growth inhibition % HT-29 Colon ([5]; Conc. 1 × 10^6, Table 2): 33%; Growth inhibition % HT-29 Colon ([5]; Conc. 1 × 10^7, Table 2): 19%
CC1CCC2(C)CCC3(C)C(=CC(=O)C4C5(C)CCC(OC(=O)CCC(=O)O)C(C)(C(=O)O)C5CCC43C)C2C1C (stereo not shown) [1,R3O = —COCH2CH2COOH, R1 = H, R4 + R5= O] | 38% | 1% | 0% | 7% | 3% | 
CCC(=O)OC1CCC2(C)C(CCC3(C)C2CC=C2C4C(C)C(C)CCC4(C)CCC23C)C1(C)C(=O)O (stereo not shown) [1, R3O = —COCH2CH3, R1 = H, R4 = R5 = H] | 98% | 86% | 94% | 86% | 94% | 
CCC(=O)OC1CCC2(C)C(CCC3(C)C2C(=O)C=C2C4C(C)C(C)CCC4(C)CCC23C)C1(C)C(=O)O (stereo not shown) [1, R = COCH2CH3, R1 = H, R4 + R5 = O] | 99% | 80% | 75% | 65% | 67% | 
CC1CCC2(C)CCC3(C)C(=CC(=O)C4C5(C)CCC(OC=O)C(C)(C(=O)O)C5CCC43C)C2C1C (stereo not shown) [1, R3O = COH, R1 = H, R4 + R5 = O] | 99% | 76% | 70% | 56% | 62% | 
CC1CCC2(C)CCC3(C)C(=CC(=O)C4C5(C)CCC(O)C(C)(C(=O)O)C5CCC43C)C2C1C (stereo not shown) [1, R = H, R1 = H, X = O] | 68% | 52% | 49% | 53% | 46% | 
CCCC(=O)OC1CCC2(C)C(CCC3(C)C2CC=C2C4C(C)C(C)CCC4(C)CCC23C)C1(C)C(=O)O (stereo not shown) [1, R3O = COCH2CH2CH3, R1 = H, R4 = R5 = H] | 75% | 91% | 101% | 99% | 98% | 
Acetyl Boswellic acid [reference compound] |  |  |  |  |  | Growth inhibition % PC-3 [1, 7]: 45%; Growth inhibition % Colo-205 Colon [2, 7]: 95%; Growth inhibition % SW-620 Colon [3, 7]: 97%; Growth inhibition % Hep-2 [4, 7]: 88%; Growth inhibition % HT-29 Colon [5, 7]: 96%
C[C@H]1[C@H](C)CC[C@]2(C)CC[C@]3(C)C(=CC[C@@H]4[C@@]5(C)CC[C@@H](O)[C@](C)(C(=O)O)[C@@H]5CC[C@]43C)[C@H]12 [Boswellic acid] |  |  |  |  |  | Growth inhibition % PC-3 [1, 7]: 100%; Growth inhibition % Colo-205 Colon [2, 7]: 86%; Growth inhibition % SW-620 Colon [3, 7]: 61%; Growth inhibition % Hep-2 [4, 7]: 45%; Growth inhibition % HT-29 Colon [5, 7]: 69%
CC(=O)O[C@@H]1CC[C@@]2(C)[C@@H](CC[C@]3(C)[C@@H]2C(=O)C=C2[C@@H]4[C@@H](C)[C@H](C)CC[C@]4(C)CC[C@]23C)[C@@]1(C)C(=O)O [Acetyl-11-keto-boswellic acid, reference compound] |  |  |  |  |  | Growth inhibition % PC-3 [1, 7]: 79%; Growth inhibition % Colo-205 Colon [2, 7]: 89%; Growth inhibition % SW-620 Colon [3, 7]: 91%; Growth inhibition % Hep-2 [4, 7]: 62%; Growth inhibition % HT-29 Colon [5, 7]: 91%
CCCC(=O)OC1CCC2(C)C(CCC3(C)C2C(=O)C=C2C4C(C)C(C)CCC4(C)CCC23C)C1(C)C(=O)O (stereo not shown) |  | 94% |  |  |  | 
